Test results published in PubChem BioAssay AID2060607 (Molecular Pharmacology Branch, DTP, NCI, 2025).

Tested on: 876862-298-R-J1-PDC complex spheroids, viability % test/control
Assay: Anticancer human tumor 876862-298-R-J1-PDC patient-derived endometrial carcinoma cell line growth inhibition [CLK]
Conditions: for IC50: curve of first compound; for viability, T/C: stronger effect = lower value
Method in brief: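 Multi-cell-type spheroids combined patient-derived tumor cells with HUVEC endothelial cells and human mesenchymal stem cells. Paired agents were dosed in half-log steps down from about clinical Cmax, or from 10 microM where Cmax was unknown.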

[1] = second compound 0.0316 µM, first compound 0.0316 µM
[2] = second compound 0.0316 µM, first compound 0.1 µM
[3] = second compound 0.0316 µM, first compound 0.316 µM
[4] = second compound 0.0316 µM, first compound 1 µM
[5] = second compound 0.1 µM, first compound 0.0316 µM
[6] = second compound 0.1 µM, first compound 0.1 µM
[7] = second compound 0.1 µM, first compound 0.316 µM
[8] = second compound 0.1 µM, first compound 1 µM
[9] = second compound 0.316 µM, first compound 0.0316 µM
[10] = second compound 0.316 µM, first compound 0.1 µM
[11] = second compound 0.316 µM, first compound 0.316 µM
[12] = second compound 0.316 µM, first compound 1 µM
[13] = second compound 1 µM, first compound 0.0316 µM
[14] = second compound 1 µM, first compound 0.1 µM
[15] = second compound 1 µM, first compound 0.316 µM
[16] = second compound 1 µM, first compound 1 µM
[17] = second compound 3.16 µM, first compound 0.0316 µM
[18] = second compound 3.16 µM, first compound 0.1 µM
[19] = second compound 3.16 µM, first compound 0.316 µM
[20] = second compound 3.16 µM, first compound 1 µM
[21] = second compound 10 µM, first compound 0.0316 µM
[22] = second compound 10 µM, first compound 0.1 µM
[23] = second compound 10 µM, first compound 0.316 µM
[24] = second compound 10 µM, first compound 1 µM
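Further: spheroids exposed to drugs for 7 days before readout.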
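Wherever viability, T/C is given: 100% = DMSO vehicle control wells.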

## C=CC(=O)Nc1cc(Nc2nccc(-c3cn(C)c4ccccc34)n2)c(OC)cc1N(C)CCN(C)C + CN1CCN(c2cc(C(=O)Nc3cc4cc(-c5cnn(C)c5)ccc4cn3)ccn2)CC1
Second compound 0.0316 µM
  IC50: 0.262 µM
Second compound 0.1 µM
  IC50: < 0.000949 µM
Second compound 0.316 µM
  IC50: < 0.000949 µM
Second compound 1 µM
  IC50: < 0.000949 µM
Second compound 3.16 µM
  IC50: < 0.000949 µM
Second compound 10 µM
  IC50: < 0.000949 µM
Second compound 0.0316 µM, first compound 0.000949 µM
  viability, T/C: 90%
Second compound 0.0316 µM, first compound 0.003 µM
  viability, T/C: 92.8%
Second compound 0.0316 µM, first compound 0.00949 µM
  viability, T/C: 90%
Second compound 0.0316 µM, first compound 0.03 µM
  viability, T/C: 82.7%
Second compound 0.0316 µM, first compound 0.0949 µM
  viability, T/C: 67.6%
Second compound 0.0316 µM, first compound 0.3 µM
  viability, T/C: 47.6%
Second compound 0.1 µM, first compound 0.000949 µM
  viability, T/C: 51.6%
Second compound 0.1 µM, first compound 0.003 µM
  viability, T/C: 45.1%
Second compound 0.1 µM, first compound 0.00949 µM
  viability, T/C: 43.7%
Second compound 0.1 µM, first compound 0.03 µM
  viability, T/C: 48.8%
Second compound 0.1 µM, first compound 0.0949 µM
  viability, T/C: 43.3%
Second compound 0.1 µM, first compound 0.3 µM
  viability, T/C: 30.7%
Second compound 0.316 µM, first compound 0.000949 µM
  viability, T/C: 3.41%
Second compound 0.316 µM, first compound 0.003 µM
  viability, T/C: 4.12%
Second compound 0.316 µM, first compound 0.00949 µM
  viability, T/C: 3.52%
Second compound 0.316 µM, first compound 0.03 µM
  viability, T/C: 4.04%
Second compound 0.316 µM, first compound 0.0949 µM
  viability, T/C: 4.57%
Second compound 0.316 µM, first compound 0.3 µM
  viability, T/C: 3.03%
Second compound 1 µM, first compound 0.000949 µM
  viability, T/C: 0.75%
Second compound 1 µM, first compound 0.003 µM
  viability, T/C: 1.64%
Second compound 1 µM, first compound 0.00949 µM
  viability, T/C: 2.15%
Second compound 1 µM, first compound 0.03 µM
  viability, T/C: 1.03%
Second compound 1 µM, first compound 0.0949 µM
  viability, T/C: 0.6%
Second compound 1 µM, first compound 0.3 µM
  viability, T/C: 2.34%
Second compound 3.16 µM, first compound 0.000949 µM
  viability, T/C: 1.02%
Second compound 3.16 µM, first compound 0.003 µM
  viability, T/C: 1.18%
Second compound 3.16 µM, first compound 0.00949 µM
  viability, T/C: 1.66%
Second compound 3.16 µM, first compound 0.03 µM
  viability, T/C: 1.01%
Second compound 3.16 µM, first compound 0.0949 µM
  viability, T/C: 1.3%
Second compound 3.16 µM, first compound 0.3 µM
  viability, T/C: 1.16%
Second compound 10 µM, first compound 0.000949 µM
  viability, T/C: 0.77%
Second compound 10 µM, first compound 0.003 µM
  viability, T/C: 2.03%
Second compound 10 µM, first compound 0.00949 µM
  viability, T/C: 2.52%
Second compound 10 µM, first compound 0.03 µM
  viability, T/C: 1.87%
Second compound 10 µM, first compound 0.0949 µM
  viability, T/C: 2.21%
Second compound 10 µM, first compound 0.3 µM
  viability, T/C: 1.88%

## CCN1CCN(Cc2ccc(Nc3ncc(F)c(-c4cc(F)c5nc(C)n(C(C)C)c5c4)n3)nc2)CC1 + CN1CCN(c2cc(C(=O)Nc3cc4cc(-c5cnn(C)c5)ccc4cn3)ccn2)CC1
Second compound 0.0316 µM
  IC50: 0.678 µM
Second compound 0.1 µM
  IC50: < 0.00316 µM
Second compound 0.316 µM
  IC50: < 0.00316 µM
Second compound 1 µM
  IC50: < 0.00316 µM
Second compound 3.16 µM
  IC50: < 0.00316 µM
Second compound 10 µM
  IC50: < 0.00316 µM
Second compound 0.0316 µM, first compound 0.00316 µM
  viability, T/C: 90.2%
Second compound 0.0316 µM, first compound 0.01 µM
  viability, T/C: 81.3%
[1]
  viability, T/C: 73.3%
[2]
  viability, T/C: 74.8%
[3]
  viability, T/C: 52.3%
[4]
  viability, T/C: 47.5%
Second compound 0.1 µM, first compound 0.00316 µM
  viability, T/C: 47%
Second compound 0.1 µM, first compound 0.01 µM
  viability, T/C: 45%
[5]
  viability, T/C: 44.1%
[6]
  viability, T/C: 47.3%
[7]
  viability, T/C: 40.9%
[8]
  viability, T/C: 43.3%
Second compound 0.316 µM, first compound 0.00316 µM
  viability, T/C: 5.03%
Second compound 0.316 µM, first compound 0.01 µM
  viability, T/C: 5.13%
[9]
  viability, T/C: 6.69%
[10]
  viability, T/C: 7.27%
[11]
  viability, T/C: 9.15%
[12]
  viability, T/C: 9.4%
Second compound 1 µM, first compound 0.00316 µM
  viability, T/C: 0.94%
Second compound 1 µM, first compound 0.01 µM
  viability, T/C: 1.28%
[13]
  viability, T/C: 1.38%
[14]
  viability, T/C: 1.66%
[15]
  viability, T/C: 2.25%
[16]
  viability, T/C: 3.04%
Second compound 3.16 µM, first compound 0.00316 µM
  viability, T/C: 1.66%
Second compound 3.16 µM, first compound 0.01 µM
  viability, T/C: 0.97%
[17]
  viability, T/C: 1.47%
[18]
  viability, T/C: 1.34%
[19]
  viability, T/C: 2.18%
[20]
  viability, T/C: 3.2%
Second compound 10 µM, first compound 0.00316 µM
  viability, T/C: 0.6%
Second compound 10 µM, first compound 0.01 µM
  viability, T/C: 0.92%
[21]
  viability, T/C: 1.95%
[22]
  viability, T/C: 2.18%
[23]
  viability, T/C: 1.88%
[24]
  viability, T/C: 2.14%

## Nc1ccccc1NC(=O)c1ccc(CNC(=O)OCc2cccnc2)cc1 + CN1CCN(c2cc(C(=O)Nc3cc4cc(-c5cnn(C)c5)ccc4cn3)ccn2)CC1
Second compound 0.0316 µM
  IC50: 4.01 µM
Second compound 0.1 µM
  IC50: < 0.0316 µM
Second compound 0.316 µM
  IC50: < 0.0316 µM
Second compound 1 µM
  IC50: < 0.0316 µM
Second compound 3.16 µM
  IC50: < 0.0316 µM
Second compound 10 µM
  IC50: < 0.0316 µM
[1]
  viability, T/C: 86.8%
[2]
  viability, T/C: 95.2%
[3]
  viability, T/C: 81.9%
[4]
  viability, T/C: 83.9%
Second compound 0.0316 µM, first compound 3.16 µM
  viability, T/C: 54.9%
Second compound 0.0316 µM, first compound 10 µM
  viability, T/C: 30.6%
[5]
  viability, T/C: 48.5%
[6]
  viability, T/C: 48.5%
[7]
  viability, T/C: 40.9%
[8]
  viability, T/C: 34.1%
Second compound 0.1 µM, first compound 3.16 µM
  viability, T/C: 15.7%
Second compound 0.1 µM, first compound 10 µM
  viability, T/C: 3.34%
[9]
  viability, T/C: 2.84%
[10]
  viability, T/C: 1.59%
[11]
  viability, T/C: 1.03%
[12]
  viability, T/C: 0.37%
Second compound 0.316 µM, first compound 3.16 µM
  viability, T/C: 0.85%
Second compound 0.316 µM, first compound 10 µM
  viability, T/C: 0.12%
[13]
  viability, T/C: 0.89%
[14]
  viability, T/C: 1.78%
[15]
  viability, T/C: 1.05%
[16]
  viability, T/C: 0.95%
Second compound 1 µM, first compound 3.16 µM
  viability, T/C: 1.68%
Second compound 1 µM, first compound 10 µM
  viability, T/C: 1.65%
[17]
  viability, T/C: 1.22%
[18]
  viability, T/C: 1.55%
[19]
  viability, T/C: 1.06%
[20]
  viability, T/C: 1.89%
Second compound 3.16 µM, first compound 3.16 µM
  viability, T/C: 2.98%
Second compound 3.16 µM, first compound 10 µM
  viability, T/C: 3.09%
[21]
  viability, T/C: 0.79%
[22]
  viability, T/C: 1.03%
[23]
  viability, T/C: 2.17%
[24]
  viability, T/C: 1.89%
Second compound 10 µM, first compound 3.16 µM
  viability, T/C: 3.24%
Second compound 10 µM, first compound 10 µM
  viability, T/C: 1.78%
